From ChEMBL document CHEMBL1799997, “Discovery of omecamtiv mecarbil the first, selective, small molecule activator of cardiac Myosin” (ACS Med Chem Lett, 2010)
In brackets after ≈: the same amount, converted by molar mass. Activity calls are given as the source filed them. The rule behind the calls is not given here.

How the values were obtained:
[1] = Plasma protein binding in Sprague-Dawley rat; assay type: ADME, cell-free; settings: read-out: PPB (converted)
[2] = target: T1, Cytochrome P450 1A2 (Homo sapiens, UniProt P05177); assay: Inhibition of CYP1A2; assay type: ADME
T1 sequence (P05177 whole entry): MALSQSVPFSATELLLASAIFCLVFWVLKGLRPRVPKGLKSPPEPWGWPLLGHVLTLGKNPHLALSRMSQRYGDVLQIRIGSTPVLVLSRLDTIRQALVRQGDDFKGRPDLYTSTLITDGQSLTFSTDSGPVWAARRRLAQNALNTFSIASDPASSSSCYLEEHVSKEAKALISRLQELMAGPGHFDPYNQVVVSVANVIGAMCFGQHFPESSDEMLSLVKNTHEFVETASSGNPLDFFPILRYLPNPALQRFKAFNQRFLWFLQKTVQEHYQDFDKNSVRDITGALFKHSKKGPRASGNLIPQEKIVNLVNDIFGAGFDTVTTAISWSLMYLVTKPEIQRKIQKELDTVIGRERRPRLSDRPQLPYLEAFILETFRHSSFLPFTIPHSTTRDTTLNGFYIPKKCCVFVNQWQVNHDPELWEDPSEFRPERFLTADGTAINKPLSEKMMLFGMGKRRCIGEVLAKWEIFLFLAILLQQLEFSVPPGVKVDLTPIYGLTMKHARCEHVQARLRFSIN

[3] = species on record: Rattus norvegicus; assay: Activation of Sprague-Dawley rat myosin in cardiomyocytes assessed as compound concentration resulting in 40% increase in ATPase activity at calcium concentrations that produced 25-50% of maximum calcium dependent activation; assay type: cell-based
[4] = Volume of distribution in Beagle dog heart failure model; assay type: ADME, organism-based, Canis lupus familiaris; settings: in vivo
[5] = Induction of contractility in Sprague-Dawley rat Cardiomyocytes assessed as change in fractional shortening at 0.2 uM; assay type: functional, Cardiac muscle cell
[6] = test system: Aorta; assay: Inhibition of vasodilation in Sprague-Dawley rat aortic ring; assay type: functional
[7] = Ratio of extraction in human Liver microsomes; assay type: ADME, Microsome; settings: read-out: ERH
[8] = Clearance in Sprague-Dawley rat; assay type: ADME, organism-based; settings: in vivo
[9] = Bioavailability in Beagle dog heart failure model; assay type: ADME, organism-based, Canis lupus familiaris; settings: in vivo
[10] = Volume of distribution in Sprague-Dawley rat; assay type: ADME, organism-based; settings: in vivo
[11] = Bioavailability in Sprague-Dawley rat; assay type: ADME, organism-based; settings: in vivo
[12] = Solubility of the compound at pH 5 by shake flask method; assay type: physicochemical; settings: buffer
[13] = Clearance in Beagle dog heart failure model; assay type: ADME, organism-based, Canis lupus familiaris; settings: in vivo
[14] = Induction of contractility in Sprague-Dawley rat Cardiomyocytes assessed as change in fractional shortening at 10 uM; assay type: functional, Cardiac muscle cell
[15] = target: T2, CYP1A2 (Homo sapiens, UniProt P05177); assay: Inhibition of CYP1A2 at 10 uM; assay type: ADME
T2 sequence (P05177 whole entry): T1 sequence (P05177 whole entry)

[16] = Induction of contractility in Sprague-Dawley rat Cardiomyocytes assessed as change in fractional shortening at 0.8 uM; assay type: functional, Cardiac muscle cell
[17] = Kinetic solubility of the compound; assay type: physicochemical
[18] = Induction of contractility in Sprague-Dawley rat Cardiomyocytes assessed as change in fractional shortening at 2 uM; assay type: functional, Cardiac muscle cell
[19] = species on record: Rattus norvegicus; assay: Activation of myosin in Sprague-Dawley rat cardiomyocytes assessed as compound concentration resulting in 40% increase in ATPase activity at calcium concentrations that produced 25-50% of maximum calcium dependent activation; assay type: cell-based
[20] = species on record: Bos taurus; assay: Activation of bovine myosin in cardiac sarcomere assessed as compound concentration resulting in 40% increase in ATPase activity at calcium concentrations that produced 25-50% of maximum calcium dependent activation at 100 uM as single dose
[21] = species on record: Bos taurus; assay: Activation of bovine uterus myosin in smooth muscle assessed as compound concentration resulting in 40% increase in ATPase activity at calcium concentrations that produced 25-50% of maximum calcium dependent activation at 100 uM as single dose
[22] = species on record: Gallus gallus; assay: Activation of chicken gizzard myosin in smooth muscle assessed as compound concentration resulting in 40% increase in ATPase activity at calcium concentrations that produced 25-50% of maximum calcium dependent activation at 100 uM as single dose
[23] = species on record: Oryctolagus cuniculus; assay: Activation of rabbit myosin in skeletal muscle assessed as compound concentration resulting in 40% increase in ATPase activity at calcium concentrations that produced 25-50% of maximum calcium dependent activation at 100 uM as single dose
[24] = Induction of contractility in Sprague-Dawley rat Cardiomyocytes assessed as change in increase in fractional shortening at 2 uM; assay type: functional, Cardiac muscle cell
[25] = Induction of contractility in Sprague-Dawley rat Cardiomyocytes assessed as change in fractional shortening at 0.4 uM; assay type: functional, Cardiac muscle cell

Row | fraction unbound [1] | IC50 [2] [µM] | Activity [3] [µM] | hepatic extraction ratio [7] | solubility thermodynamic [12] [µg/mL] | solubility kinetic [17] [µg/mL] | SMILES | R50 [6] [µM] | Activity [18] [%] | also measured
1 | 0.175 |  | 7.3 |  | 550 (≈ 1480 µM) |  | CC(=O)N1CCC[C@H](Oc2cc(F)cc(NC(=O)Nc3cccnc3)c2)C1 | >25 |  | Activity [14]: 122%; inhibition at 10 µM [15]: 99%
2 | 0.112 | 0.06 | 0.7 | 0.9 | 13 (≈ 30.7 µM) |  | CN(C)S(=O)(=O)N1CC[C@@H](Oc2cc(F)cc(NC(=O)Nc3cccnc3)c2)C1 | >25 |  | Activity [25]: 137%
3 | 0.175 | 0.08 | 2.5 | 0.5 | 390 (≈ 1050 µM) |  | CC(=O)N1CCC[C@@H](Oc2cc(F)cc(NC(=O)Nc3cccnc3)c2)C1 | 1.7 | 129 | 
4 | 0.096 |  | 3.6 | 0.5 | 18 (≈ 46.3 µM) |  | COC(=O)N1CCC[C@@H](Oc2cc(F)cc(NC(=O)Nc3cccnc3)c2)C1 | 8 | 123 | inhibition at 10 µM [15]: 97%
5 | 0.079 |  | 0.6 |  | 40 (≈ 91.4 µM) |  | CN(C)S(=O)(=O)N1CCC[C@@H](Oc2cc(F)cc(NC(=O)Nc3cccnc3)c2)C1 | 6.6 |  | Activity [16]: 126%
6 | 0.065 | > 10 | 0.8 | 0.3 | 17 (≈ 42.2 µM) |  | COC(=O)N1CCC(Oc2cc(F)cc(NC(=O)Nc3ccc(C)nc3)c2)CC1 | 11 | 123 | 
7 |  | > 10 | 2.5 | 0.6 | 130 (≈ 336 µM) |  | CC(=O)N1CCC[C@@H](Oc2cc(F)cc(NC(=O)Nc3ccc(C)nc3)c2)C1 | 2.4 | 140 | 

Continued, molecule first:

Row | SMILES | fraction unbound [1] | IC50 [2] [µM] | Activity [3] [µM] | hepatic extraction ratio [7] | solubility thermodynamic [12] [µg/mL] | solubility kinetic [17] [µg/mL] | R50 [6] [µM] | Activity [18] [%] | also measured
8 | COC(=O)N1CCN(Cc2cccc(NC(=O)Nc3ccc(C)nc3)c2F)CC1 [OMECAMTIV MECARBIL] | 0.204 | > 10 | 0.58 | < 0.2 | 2200 (≈ 5480 µM) |  | >25 |  | Vd [4]: 3.6 L/kg; Activity [5]: 123%; clearance [8]: 22 mL/min/kg; bioavailability [9]: 80%; Vd [10]: 3.5 L/kg; bioavailability [11]: 100%; clearance [13]: 7.2 mL/min/kg
9 | COC(=O)N1CCN(Cc2cc(F)cc(NC(=O)Nc3ccc(C)nc3)c2)CC1 | 0.103 | > 10 | 1.7 | < 0.2 | 4600 (≈ 11500 µM) |  | >25 |  | Activity [16]: 138%
10 | COc1ccc(NC(=O)Nc2cc(F)cc(Oc3cccnc3)c2)cc1 | 0.049 |  | 0.7 |  |  | < 1 |  | 139 | 
11 | COc1ccc(NC(=O)Nc2cc(F)cc(Oc3cccnc3)c2)cn1 | 0.075 |  | 1.4 |  |  | 28 (≈ 79 µM) |  | 134 | 
12 | O=C(Nc1cc(Oc2cccnc2)cc([N+](=O)[O-])c1)c1ccc(F)cc1 |  |  | 1.4 |  |  | < 1 |  |  | Activity [19]: Active; Activity [20]: Active; Activity [21]: inactive; Activity [22]: inactive; Activity [23]: inactive; Activity [24]: 135%
13 | COC(=O)N1CCN(Cc2cccc(NC(=O)Nc3ccc(C)nc3)c2)CC1 | 0.128 | > 10 | 4.5 | < 0.2 | 4000 (≈ 10400 µM) |  | 15 |  | Activity [16]: 126%
14 | O=C(Nc1cccc(Oc2cccnc2)c1)c1ccc(F)cc1 |  |  | 32 |  |  | 17 (≈ 55.1 µM) |  |  | 
15 | O=C(Nc1cccnc1)Nc1cc(F)cc(Oc2cccnc2)c1 | 0.071 |  | 1.1 |  | 28 (≈ 86.3 µM) | 46 (≈ 142 µM) |  | 127 | 
16 | O=C(Nc1cc(F)cc(Oc2cccnc2)c1)c1ccc(F)cc1 | 0.079 |  | 2.5 |  |  | 5.3 (≈ 16.2 µM) |  | 104 | 
17 | O=C(Nc1ccc(F)cc1)Nc1cc(F)cc(Oc2cccnc2)c1 |  |  | 1.8 |  |  | 1.1 (≈ 3.22 µM) |  | 121 | 
